From patent US9393271B2, “GHRH agonists for islet cell transplantation and function and the treatment of diabetes” (UNIVERSITY OF MIAMI, priority 2012, dated 2016)
Non-standard residues stand in square brackets, D forms with d. Residues, ends and D or L forms follow the SMILES beside them. *: point of attachment. Desaminotyrosyl = O=C(CCc1ccc(O)cc1)*; NMeY = CN[C@@H](Cc1ccc(O)cc1)C(=O)O; Agmatine = N=C(N)NCCCCN*; NMeA = CN[C@@H](C)C(=O)O; Nle = CCCC[C@H](N)C(=O)O; Orn = NCCC[C@H](N)C(=O)O; Abu = CC[C@H](N)C(=O)O

Target: T1, GHRH receptor (human pituitary membrane homogenates) (Homo sapiens, UniProt Q02643)
T1 sequence (Q02643 23-423): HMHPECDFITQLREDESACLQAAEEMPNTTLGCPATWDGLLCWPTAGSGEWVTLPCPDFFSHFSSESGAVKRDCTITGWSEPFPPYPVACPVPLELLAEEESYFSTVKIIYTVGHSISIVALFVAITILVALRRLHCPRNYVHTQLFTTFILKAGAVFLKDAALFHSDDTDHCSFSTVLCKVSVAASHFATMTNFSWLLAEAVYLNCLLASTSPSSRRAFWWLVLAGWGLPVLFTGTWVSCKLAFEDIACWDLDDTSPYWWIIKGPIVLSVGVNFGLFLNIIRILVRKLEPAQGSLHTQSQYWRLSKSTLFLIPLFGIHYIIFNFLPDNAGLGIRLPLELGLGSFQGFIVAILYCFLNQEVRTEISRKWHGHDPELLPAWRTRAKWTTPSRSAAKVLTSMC
Test: GHRH receptor binding, ligand competition with 125I-labeled JV-1-42 (Table 7)
Parameters: Normal human pituitaries were purchased from the National Hormone and Peptide Program; tissue National Hormone and Peptide Program (A. F. Parlow, Harbor-UCLA Medical Center, Torrance, Calif.); host or cells: normal human pituitary, membrane fraction / homogenate
Conditions: JI-38 = 1

| Relative affinitiy (Binding potency) vs JI-38 | SMILES |
| --- | --- |
| 1.45 | CCCC[C@H](NC(=O)[C@@H](NC(=O)[C@H](CC(=O)O)NC(=O)[C@H](CCC(N)=O)NC(=O)[C@H](CC(C)C)NC(=O)[C@H](CC(C)C)NC(=O)[C@H](CCCN)NC(=O)[C@H](CCCNC(=N)N)NC(=O)[C@H](C)NC(=O)[C@H](CO)NC(=O)[C@H](CC(C)C)NC(=O)[C@H](CCC(N)=O)NC(=O)[C@H](CC)NC(=O)[C@H](CC(C)C)NC(=O)[C@@H](NC(=O)[C@H](CCCN)NC(=O)[C@H](CCCNC(=N)N)NC(=O)[C@H](Cc1ccc(O)cc1)NC(=O)[C@H](CO)NC(=O)[C@H](CCC(N)=O)NC(=O)[C@@H](NC(=O)[C@H](Cc1ccccc1)NC(=O)[C@@H](NC(=O)[C@H](C)NC(=O)[C@H](CC(=O)O)NC(=O)[C@H](C)NC(=O)CCc1ccc(O)cc1)[C@@H](C)CC)[C@@H](C)O)C(C)C)[C@@H](C)CC)C(=O)N[C@@H](CC(=O)O)C(=O)N[C@@H](CCCNC(=N)N)C(=O)NC [Peptide P-27407, [Dat^1, Gln^8, Orn^12, Abu^15, Orn^21, Nle^27, Asp^28]hGHRH(1-29)NH—CH3] (Desaminotyrosyl-ADAIFTQSYR[Orn]VL[Abu]QLSAR[Orn]LLQDI[Nle]DR-NHMe) |
| 4.03 | CCCC[C@H](NC(=O)[C@@H](NC(=O)[C@H](CC(=O)O)NC(=O)[C@H](CCC(N)=O)NC(=O)[C@H](CC(C)C)NC(=O)[C@H](CC(C)C)NC(=O)[C@H](CCCN)NC(=O)[C@H](CCCNC(=N)N)NC(=O)[C@H](C)NC(=O)[C@H](CO)NC(=O)[C@H](CC(C)C)NC(=O)[C@H](CCC(N)=O)NC(=O)[C@H](CC)NC(=O)[C@H](CC(C)C)NC(=O)[C@@H](NC(=O)[C@H](CCCN)NC(=O)[C@H](CCCNC(=N)N)NC(=O)[C@H](Cc1ccc(O)cc1)NC(=O)[C@H](CO)NC(=O)[C@H](CCC(N)=O)NC(=O)[C@@H](NC(=O)[C@H](Cc1ccccc1)NC(=O)[C@@H](NC(=O)[C@H](C)NC(=O)[C@H](CC(=O)O)NC(=O)[C@H](C)NC(=O)[C@H](Cc1ccc(O)cc1)NC)[C@@H](C)CC)[C@@H](C)O)C(C)C)[C@@H](C)CC)C(=O)N[C@@H](CO)C(=O)N[C@@H](CCCNC(=N)N)C(=O)NC [Peptide P-27405, [N—Me-Tyr^1, Gln^8, Orn^12, Abu^15, Orn^21, Nle^27]hGHRH(1-29)NH—CH3] (H-[NMeY]ADAIFTQSYR[Orn]VL[Abu]QLSAR[Orn]LLQDI[Nle]SR-NHMe) |
| 2.96 | CCCC[C@H](NC(=O)[C@@H](NC(=O)[C@H](CC(=O)O)NC(=O)[C@H](CCC(N)=O)NC(=O)[C@H](CC(C)C)NC(=O)[C@H](CC(C)C)NC(=O)[C@H](CCCN)NC(=O)[C@H](CCCNC(=N)N)NC(=O)[C@H](C)NC(=O)[C@H](CO)NC(=O)[C@H](CC(C)C)NC(=O)[C@H](CCC(N)=O)NC(=O)[C@H](CC)NC(=O)[C@H](CC(C)C)NC(=O)[C@@H](NC(=O)[C@H](CCCN)NC(=O)[C@H](CCCNC(=N)N)NC(=O)[C@H](Cc1ccc(O)cc1)NC(=O)[C@H](CO)NC(=O)[C@H](CC(N)=O)NC(=O)[C@@H](NC(=O)[C@H](Cc1ccccc1)NC(=O)[C@@H](NC(=O)[C@H](C)NC(=O)[C@H](CC(=O)O)NC(=O)[C@@H](C)NC(=O)[C@H](Cc1ccc(O)cc1)NC)[C@@H](C)CC)[C@@H](C)O)C(C)C)[C@@H](C)CC)C(=O)N[C@@H](CC(=O)O)C(=O)N[C@@H](CCCNC(=N)N)C(=O)NCC [Peptide P-28421, [N—Me-Tyr^1, D-Ala^2, Orn^12, Abu^15, Orn^21, Nle^27, Asp^28]hGHRH(1-29)NH—CH2—CH3] (H-[NMeY][dA]DAIFTNSYR[Orn]VL[Abu]QLSAR[Orn]LLQDI[Nle]DR-NHEt) |
| 14.5 | CCCC[C@H](NC(=O)[C@@H](NC(=O)[C@H](CC(=O)O)NC(=O)[C@H](CCC(N)=O)NC(=O)[C@H](CC(C)C)NC(=O)[C@H](CC(C)C)NC(=O)[C@H](CCCN)NC(=O)[C@H](CCCNC(=N)N)NC(=O)[C@H](C)NC(=O)[C@H](CO)NC(=O)[C@H](CC(C)C)NC(=O)[C@H](CCC(N)=O)NC(=O)[C@H](CC)NC(=O)[C@H](CC(C)C)NC(=O)[C@@H](NC(=O)[C@H](CCCN)NC(=O)[C@H](CCCNC(=N)N)NC(=O)[C@H](Cc1ccc(O)cc1)NC(=O)[C@H](CO)NC(=O)[C@H](CCC(N)=O)NC(=O)[C@@H](NC(=O)[C@H](Cc1ccccc1)NC(=O)[C@@H](NC(=O)[C@H](C)NC(=O)[C@H](CC(=O)O)NC(=O)[C@H](C)NC(=O)[C@H](Cc1ccc(O)cc1)NC)[C@@H](C)CC)[C@@H](C)O)C(C)C)[C@@H](C)CC)C(=O)N[C@@H](CC(=O)O)C(=O)N[C@@H](CCCNC(=N)N)C(=O)NC [Peptide P-27406, [N—Me-Tyr^1, Gln^8, Orn^12, Abu^15, Orn^21, Nle^27, Asp^28]hGHRH(1-29)NH—CH3] (H-[NMeY]ADAIFTQSYR[Orn]VL[Abu]QLSAR[Orn]LLQDI[Nle]DR-NHMe) |
| 1.30 | CCCC[C@H](NC(=O)[C@@H](NC(=O)[C@H](CC(=O)O)NC(=O)[C@H](CCC(N)=O)NC(=O)[C@H](CC(C)C)NC(=O)[C@H](CC(C)C)NC(=O)[C@H](CCCN)NC(=O)[C@H](CCCNC(=N)N)NC(=O)[C@H](C)NC(=O)[C@H](CO)NC(=O)[C@H](CC(C)C)NC(=O)[C@H](CCC(N)=O)NC(=O)[C@H](CC)NC(=O)[C@H](CC(C)C)NC(=O)[C@@H](NC(=O)[C@H](CCCN)NC(=O)[C@H](CCCNC(=N)N)NC(=O)[C@H](Cc1ccc(O)cc1)NC(=O)[C@H](CO)NC(=O)[C@H](CC(N)=O)NC(=O)[C@@H](NC(=O)[C@H](Cc1ccccc1)NC(=O)[C@@H](NC(=O)[C@H](C)NC(=O)[C@H](CC(=O)O)NC(=O)[C@@H](C)NC(=O)CCc1ccc(O)cc1)[C@@H](C)CC)[C@@H](C)O)C(C)C)[C@@H](C)CC)C(=O)N[C@@H](CC(=O)O)C(=O)N[C@@H](CCCNC(=N)N)C(=O)NC [Peptide P-27400, [Dat^1, D-Ala^2, Orn^12, Abu^15, Orn^21, Nle^27, Asp^28]hGHRH(1-29)NH—CH3] (Desaminotyrosyl-[dA]DAIFTNSYR[Orn]VL[Abu]QLSAR[Orn]LLQDI[Nle]DR-NHMe) |
| 8.37 | CCCC[C@H](NC(=O)[C@@H](NC(=O)[C@H](CC(=O)O)NC(=O)[C@H](CCC(N)=O)NC(=O)[C@H](CC(C)C)NC(=O)[C@H](CC(C)C)NC(=O)[C@H](CCCN)NC(=O)[C@H](CCCNC(=N)N)NC(=O)[C@H](C)NC(=O)[C@H](CO)NC(=O)[C@H](CC(C)C)NC(=O)[C@H](CCC(N)=O)NC(=O)[C@H](CC)NC(=O)[C@H](CC(C)C)NC(=O)[C@@H](NC(=O)[C@H](CCCN)NC(=O)[C@H](CCCNC(=N)N)NC(=O)[C@H](Cc1ccc(O)cc1)NC(=O)[C@H](CO)NC(=O)[C@H](CCC(N)=O)NC(=O)[C@@H](NC(=O)[C@H](Cc1ccccc1)NC(=O)[C@@H](NC(=O)[C@H](C)NC(=O)[C@H](CC(=O)O)NC(=O)[C@@H](C)NC(=O)[C@H](Cc1ccc(O)cc1)NC)[C@@H](C)CC)[C@@H](C)O)C(C)C)[C@@H](C)CC)C(=O)N[C@@H](CC(=O)O)C(=O)N[C@@H](CCCNC(=N)N)C(=O)NCC [Peptide P-28420, [N—Me-Tyr^1, D-Ala^2, Gln^8, Orn^12, Abu^15, Orn^21, Nle^27, Asp^28]hGHRH(1-29)NH—CH2—CH3] (H-[NMeY][dA]DAIFTQSYR[Orn]VL[Abu]QLSAR[Orn]LLQDI[Nle]DR-NHEt) |

| SMILES | Relative affinitiy (Binding potency) vs JI-38 |
| --- | --- |
| CCCC[C@H](NC(=O)[C@@H](NC(=O)[C@H](CC(=O)O)NC(=O)[C@H](CCC(N)=O)NC(=O)[C@H](CC(C)C)NC(=O)[C@H](CC(C)C)NC(=O)[C@H](CCCN)NC(=O)[C@H](CCCNC(=N)N)NC(=O)[C@H](C)NC(=O)[C@H](CO)NC(=O)[C@H](CC(C)C)NC(=O)[C@H](CCC(N)=O)NC(=O)[C@H](CC)NC(=O)[C@H](CC(C)C)NC(=O)[C@@H](NC(=O)[C@H](CCCN)NC(=O)[C@H](CCCNC(=N)N)NC(=O)[C@H](Cc1ccc(O)cc1)NC(=O)[C@H](CO)NC(=O)[C@H](C)N(C)C(=O)[C@@H](NC(=O)[C@H](Cc1ccccc1)NC(=O)[C@@H](NC(=O)[C@H](C)NC(=O)[C@H](CC(=O)O)NC(=O)[C@@H](C)NC(=O)CCc1ccc(O)cc1)[C@@H](C)CC)[C@@H](C)O)C(C)C)[C@@H](C)CC)C(=O)N[C@@H](CC(=O)O)C(=O)NCCCCNC(=N)N [Peptide P-20357, [Dat^1, D-Ala^2, N—Me-Ala^8, Orn^12, Abu^15, Orn^21, Nle^27, Asp^28, Agm^29]hGHRH(1-29)] (Desaminotyrosyl-[dA]DAIFT[NMeA]SYR[Orn]VL[Abu]QLSAR[Orn]LLQDI[Nle]D-Agmatine) | 5.06 |
| CCCC[C@H](NC(=O)[C@@H](NC(=O)[C@H](CC(=O)O)NC(=O)[C@H](CCC(N)=O)NC(=O)[C@H](CC(C)C)NC(=O)[C@H](CC(C)C)NC(=O)[C@H](CCCN)NC(=O)[C@H](CCCNC(=N)N)NC(=O)[C@H](C)NC(=O)[C@H](CO)NC(=O)[C@H](CC(C)C)NC(=O)[C@H](CCC(N)=O)NC(=O)[C@H](CC)NC(=O)[C@H](CC(C)C)NC(=O)[C@@H](NC(=O)[C@H](CCCN)NC(=O)[C@H](CCCNC(=N)N)NC(=O)[C@H](Cc1ccc(O)cc1)NC(=O)[C@H](CO)NC(=O)[C@H](CCC(N)=O)NC(=O)[C@@H](NC(=O)[C@H](Cc1ccccc1)NC(=O)[C@@H](NC(=O)[C@H](C)NC(=O)[C@H](CC(=O)O)NC(=O)[C@@H](C)NC(=O)[C@H](Cc1ccc(O)cc1)NC)[C@@H](C)CC)[C@@H](C)O)C(C)C)[C@@H](C)CC)C(=O)N[C@@H](CC(=O)O)C(=O)NCCCCNC(=N)N [Peptide P-20361, [N—Me-Tyr^1, D-Ala^2, Gln^8, Orn^12, Abu^15, Orn^21, Nle^27, Asp^28, Agm^29] hGHRH(1-29)] (H-[NMeY][dA]DAIFTQSYR[Orn]VL[Abu]QLSAR[Orn]LLQDI[Nle]D-Agmatine) | 5.30 |
